“And” between values parts separate entries of the source, which are not always exact repeats. Equal values may be shown once. Where a name gives a salt, the structure may show the parent alone.
Tested on: self-administration (addictive potential)
Assay: I.v. self-administration of CP612, between-session progressive ratio and demand curve
Description: We tested the addictive potential of CP612 by examining the extent to which rats are willing to work to obtain CP612. Rats were initially trained to self-administer either saline, morphine (500 μg/kg/i.v. infusion), or 1 of 3 different doses of CP612 (75, 150, or 300 μg/kg/i.v. infusion) for 4 days at fixed ratio 1 (FR1, where 1 nose poke delivers 1 infusion).
During the second phase, the ratio to obtain an infusion increased geometrically every other day (FR1, FR3, FR6, FR12, FR24, FR48, and FR96).
Data (number of self-infusions) were also fitted in an economic-demand curve, which provides an estimate of the motivation to obtain drugs and their addictive potential ([20]). We measured elasticity (α), which is the relative change in consumption as a function of price (i.e., ratio of nose pokes required to obtain an infusion). Behavior is considered “inelastic” when consumption is insensitive to price and “elastic” when consumption is sensitive to price. We also measured Pmax, which is the price at which intake switches from inelastic to elastic. […] (Figure 8B).
Rats not immediately anesthetized were eliminated from the study.
Following this initial acquisition phase at FR1, the ratio to obtain the drug was increased geometrically every other day: FR3 (3 nose pokes are required to obtain 1 infusion of morphine), FR6, FR12, FR24, FR48, and FR96. This allows for analysis of drug consumption as a function of “price” using demand curves for behavioral economics, which can estimate the motivation to obtain drugs and their “addictive potential” ([20]). For this, data from each rat were fitted to the equation log Q = log Q0 + k (e ^–α(Q0 ^C) – 1), where Q represents consumption (number of self-infusions), and Q0 represents the level of consumption at the lowest price. C represents price for the drug (i.e., the ratio), and k is set to a constant accounting for the estimated range of consumption in logarithmic units (k = 4 in these studies). The symbol α is the relative change in consumption across changes in price (ratio). Behavior is considered “inelastic” when consumption is insensitive to price (i.e., the curve is flat, and consumption is maintained despite increases in price), and it switches to “elastic” when consumption is sensitive to price (i.e., when the curve is steep and consumption declines with increases in price). […] We also compared groups for their average intake in the consumption-price curves by measuring α (elasticity) and Pmax.

[1] = morphine, individual rats, column in the AH block

In the case of `CN1CC[C@]23c4c5ccc(O)c4O[C@H]2[C@@H](O)C=C[C@H]3[C@H]1C5` [Morphine, Morphine sulfate, reference compound], the “AVG Latency (FR3)” value (morphine, individual rats) is reported as 0.17 and 0.173 and 1.3 and 0.2 and 0.6 and 1.9, the “AVG Latency (FR6)” value (morphine, individual rats) is reported as 1.3 and 0.175 and 0.8 and 2.9 and 1.1 and 1.4 and the “AVG Latency (FR12)” value (morphine, individual rats) is reported as 0.435 and 0.663 and 0.7 and 0.227 and 2.8 and 2.7. The “AVG Latency (FR24)” value (morphine, individual rats) was 1.2 and 0.75 and 0.9 and 0.754 and 0.6 and 2.4, the “AVG Latency (FR48)” value (morphine, individual rats) was 0.8 and 0.428 and 0.738 and 0.951 and 1.0 and the “AVG Latency (FR96)” value (morphine, individual rats) was 0.9 and 0.7 and 1.4 and 0.6 and 1.6. For the same compound, the “D1 AH (FR1)” value (morphine, individual rats) was 15 and 13 and 16 and 19 and 12, the “D1 AH (FR3)” value (morphine, individual rats) was 44 and 27 and 25 and 19 and 17 and 29 and the “D1 AH (FR6)” value (morphine, individual rats) was 38 and 54 and 48 and 37 and 30 and 17. The “D1 AH (FR12)” value (morphine, individual rats) was 76 and 90 and 97 and 95 and 40 and 39, the “D1 AH (FR24)” value (morphine, individual rats) was 167 and 144 and 79 and 198 and 125 and 58 and the “D1 AH (FR48)” value (morphine, individual rats) was 269 and 254 and 72 and 297 and 145 and 69. For the same compound, the “D1 AH (FR96)” value (morphine, individual rats) was 243 and 334 and 76 and 204 and 237 and 36, the “D1 IH (FR1)” value (morphine, individual rats) was 11 and 22 and 18 and 9 and 7 and the “D1 IH (FR3)” value (morphine, individual rats) was 16 and 9 and 5 and 2 and 13 and 11. For the same compound, the “D1 IH (FR6)” value (morphine, individual rats) was 3 and 5 and 7 and 18 and 10, the “D1 IH (FR12)” value (morphine, individual rats) was 10 and 5 and 16 and 3 and 7 and the “D1 IH (FR24)” value (morphine, individual rats) was 14 and 6 and 19 and 5 and 10. The “D1 IH (FR48)” value (morphine, individual rats) was 8 and 18 and 11 and 9 and 7 and 12, the “D1 IH (FR96)” value (morphine, individual rats) was 9 and 26 and 16 and 12 and 28 and the “D1 Inf (FR1)” value (morphine, individual rats) was 9 and 8 and 12 and 10. For the same compound, the “D1 Inf (FR3)” value (morphine, individual rats) was 11 and 8 and 5 and 4, the “D1 Inf (FR6)” value (morphine, individual rats) was 6 and 7 and 4 and 2 and the “D1 Inf (FR12)” value (morphine, individual rats) was 6 and 7 and 3. The “D1 Inf (FR24)” value (morphine, individual rats) was 6 and 5 and 3 and 8 and 4 and 2, the “D1 Inf (FR48)” value (morphine, individual rats) was 5 and 1 and 2 and the “D1 Inf (FR96)” value (morphine, individual rats) was 2 and 3 and 0. The “D1 Latency (FR1)” value (morphine, individual rats) was 9.3 and 15.1 and 26.3 and 3.9 and 5.9 and 0.853, the “D1 Latency (FR3)” value (morphine, individual rats) was 0.238 and 0.2 and 1.5 and 0.9 and 0.358 and the “D1 Latency (FR6)” value (morphine, individual rats) was 0.072 and 0.225 and 1.0 and 0.4 and 0.178 and 1.6. For the same compound, the “D1 Latency (FR12)” value (morphine, individual rats) was 0.038 and 1.0 and 0.6 and 0.032 and 1.6 and 1.2, the “D1 Latency (FR24)” value (morphine, individual rats) was 1.5 and 0.075 and 0.5 and 0.328 and 0.538 and 3.9 and the “D1 Latency (FR48)” value (morphine, individual rats) was 0.107 and 0.4 and 0.5 and 1.0 and 1.4 and 1.2. The “D1 Latency (FR96)” value (morphine, individual rats) was 0.7 and 0.8 and 1.4 and 0.438 and 2.3, the “D2 AH (FR1)” value (morphine, individual rats) was 16 and 10 and 8 and 18 and 17 and the “D2 AH (FR3)” value (morphine, individual rats) was 43 and 31 and 37 and 17 and 20 and 19. For the same compound, the “D2 AH (FR6)” value (morphine, individual rats) was 49 and 53 and 43 and 40 and 32 and 25, the “D2 AH (FR12)” value (morphine, individual rats) was 48 and 86 and 32 and 113 and 38 and 44 and the “D2 AH (FR24)” value (morphine, individual rats) was 162 and 155 and 80 and 176 and 120 and 64. The “D2 AH (FR48)” value (morphine, individual rats) was 196 and 251 and 75 and 213 and 125 and 57, the “D2 AH (FR96)” value (morphine, individual rats) was 164 and 368 and 38 and 192 and 184 and 36 and the “D2 IH (FR1)” value (morphine, individual rats) was 9 and 4 and 12 and 6 and 11. For the same compound, the “D2 IH (FR3)” value (morphine, individual rats) was 4 and 6 and 12 and 14 and 17 and 7, the “D2 IH (FR6)” value (morphine, individual rats) was 10 and 9 and 13 and 8 and 12 and the “D2 IH (FR12)” value (morphine, individual rats) was 12 and 14 and 22 and 7 and 1. The “D2 IH (FR24)” value (morphine, individual rats) was 8 and 14 and 11 and 10 and 7, the “D2 IH (FR48)” value (morphine, individual rats) was 9 and 13 and 27 and 12 and 14 and the “D2 IH (FR96)” value (morphine, individual rats) was 8 and 11 and 15 and 13 and 24. The “D2 Inf (FR1)” value (morphine, individual rats) was 11 and 9 and 7 and 10 and 12, the “D2 Inf (FR3)” value (morphine, individual rats) was 10 and 9 and 11 and 5 and the “D2 Inf (FR6)” value (morphine, individual rats) was 8 and 7 and 6 and 4. For the same compound, the “D2 Inf (FR12)” value (morphine, individual rats) was 4 and 6 and 2 and 9 and 3, the “D2 Inf (FR24)” value (morphine, individual rats) was 6 and 3 and 7 and 4 and 2 and the “D2 Inf (FR48)” value (morphine, individual rats) was 4 and 5 and 1 and 2. For the same compound, the “D2 Inf (FR96)” value (morphine, individual rats) was 1 and 3 and 0, the “D2 Latency (FR1)” value (morphine, individual rats) was 0.152 and 0.662 and 1.3 and 0.455 and 0.133 and 2.0 and the “D2 Latency (FR3)” value (morphine, individual rats) was 0.1 and 0.137 and 1.1 and 0.19 and 0.327 and 3.5. The “D2 Latency (FR6)” value (morphine, individual rats) was 2.5 and 0.125 and 0.7 and 5.3 and 1.9 and 1.1, the “D2 Latency (FR12)” value (morphine, individual rats) was 0.8 and 0.372 and 0.7 and 0.422 and 4.1 and the “D2 Latency (FR24)” value (morphine, individual rats) was 0.9 and 1.4 and 1.3 and 1.2 and 0.7 and 0.8. For the same compound, the “D2 Latency (FR48)” value (morphine, individual rats) was 1.4 and 0.457 and 1.0 and 0.9 and 0.543 and 0.367, the “D2 Latency (FR96)” value (morphine, individual rats) was 1.1 and 0.555 and 1.4 and 0.748 and 0.66 and 1.0 and the “D3 AH (FR1)” value (morphine, individual rats) was 24 and 13 and 8 and 20 and 17. The “D3 IH (FR1)” value (morphine, individual rats) was 18 and 4 and 15 and 3 and 20 and 8, the “D3 Inf (FR1)” value (morphine, individual rats) was 10 and 7 and 14 and the “D3 Latency (FR1)” value (morphine, individual rats) was 0.3 and 0.137 and 7.8 and 0.352 and 0.9 and 0.327. For the same compound, the “D4 AH (FR1)” value (morphine, individual rats) was 23 and 12 and 13 and 17 and 15, the “D4 IH (FR1)” value (morphine, individual rats) was 3 and 5 and 8 and 6 and 9 and the “D4 Inf (FR1)” value (morphine, individual rats) was 13 and 10 and 11 and 9 and 8. For the same compound, the “D4 Latency (FR1)” value (morphine, individual rats) was 0.06 and 0.143 and 4.0 and 0.342 and 1.1, the “last AH (FR1)” value (morphine, individual rats) was 21 and 12 and 18 and 22 and 14 and 10 and the “last IH (FR1)” value (morphine, individual rats) was 4 and 1 and 3 and 7 and 9. For the same compound, the “last Inf (FR1)” value (morphine, individual rats) was 15 and 10 and 12 and 17 and 9 and 7, the “last Latency (FR1)” value (morphine, individual rats) was 0.5 and 0.7 and 2.0 and 0.017 and 0.4 and 1.1 and the “last-1 AH (FR1)” value (morphine, individual rats) was 23 and 12 and 13 and 17 and 15. For the same compound, the “last-1 IH (FR1)” value (morphine, individual rats) was 3 and 5 and 8 and 6 and 9, the “last-1 Inf (FR1)” value (morphine, individual rats) was 13 and 10 and 11 and 9 and 8 and the “last-1 Latency (FR1)” value (morphine, individual rats) was 0.06 and 0.143 and 4.0 and 0.342 and 1.1. For the same compound, the “last-2 AH (FR1)” value (morphine, individual rats) was 24 and 13 and 8 and 20 and 17, the “last-2 IH (FR1)” value (morphine, individual rats) was 18 and 4 and 15 and 3 and 20 and 8 and the “last-2 Inf (FR1)” value (morphine, individual rats) was 10 and 7 and 14. The “last-2 Latency (FR1)” value (morphine, individual rats) was 0.3 and 0.137 and 7.8 and 0.352 and 0.9 and 0.327, the “last-3 AH (FR1)” value (morphine, individual rats) was 24 and 13 and 8 and 18 and 10 and 17 and the “last-3 IH (FR1)” value (morphine, individual rats) was 18 and 4 and 12 and 6 and 11. For the same compound, the “last-3 Inf (FR1)” value (morphine, individual rats) was 10 and 7 and 11 and 12, the “last-3 Latency (FR1)” value (morphine, individual rats) was 0.3 and 0.137 and 1.3 and 0.455 and 0.133 and 2.0 and the “AVG Inf (FR1_D1 to D4)” value [1] was 19.5 and 12.0 and 11.0 and 16.8 and 14.8 and 15.3. The “AVG Inf (FR1_Last 2 FR1 days)” value [1] was 22.0 and 12.0 and 15.5 and 17.5 and 12.5, the “AVG Inf (FR1_Last 4 FR1 days)” value [1] was 23.0 and 12.5 and 11.8 and 18.3 and 13.5 and 14.8 and the “AVG AH (FR3)” value (per-rat average) was 24.0 and 20.5 and 23.0. For the same compound, the “AVG AH (FR6)” value (per-rat average) was 55.0 and 42.0 and 46.5, the “AVG AH (FR12)” value (per-rat average) was 107.5 and 82.0 and 88.0 and the “AVG AH (FR24)” value (per-rat average) was 143.0 and 145.0 and 172.0. The “AVG AH (FR48)” value (per-rat average) was 138.0 and 149.0 and 142.5, the “AVG AH (FR96)” value (per-rat average) was 116.5 and 141.0 and 156.0 and the “AVG IH (FR1_Last 2 FR1 days)” value (per-rat average) was 1.5 and 3.0. The “AVG IH (FR6)” value (per-rat average) was 4.5 and 8.5 and 7.5, the “AVG IH (FR48)” value (per-rat average) was 16.0 and 12.0 and 23.5 and the “AVG Inf (FR1_D1 to D4)” value (per-rat average) was 6.0 and 7.3 and 9.3. For the same compound, the “AVG Inf (FR1_Last 2 FR1 days)” value (per-rat average) was 6.5 and 7.5, the “AVG Inf (FR1_Last 4 FR1 days)” value (per-rat average) was 6.0 and 7.0 and 8.3 and the “AVG Inf (FR3)” value (per-rat average) was 7.5 and 5.5 and 7.0. For the same compound, the “AVG Inf (FR6)” value (per-rat average) was 8.0 and 6.5 and 7.0, the “AVG Inf (FR12)” value (per-rat average) was 8.5 and 5.5 and 6.5 and the “AVG Inf (FR24)” value (per-rat average) was 5.0 and 5.5 and 6.5. For the same compound, the “AVG Inf (FR48)” value (per-rat average) was 2.5, the “AVG Inf (FR96)” value (per-rat average) was 1.0 and the “AVG Latency (FR1_D1 to D4)” value (per-rat average) was 0.7 and 1.3 and 0.8. For the same compound, the “AVG Latency (FR3)” value (per-rat average) was 0.3 and 0.6 and 0.339 and the “AVG Latency (FR96)” value (per-rat average) was 0.8 and 0.7 and 0.9.

Source: paper PMC12016938, “A small molecule PKCε inhibitor reduces hyperalgesia induced by paclitaxel or opioid withdrawal” (JCI Insight, 2025)
